Test results: US11470846B2, “Herbicidal pyridino-/pyrimidino-thiazoles” (SYNGENTA PARTICIPATIONS AG, priority 2014, dated 2022)

Legend:
Type in all cases: in vivo
[1] = test system: Alopecurus myosuroides (ALOMY); assay: Pre-emergence herbicidal activity; settings: pre-emergence application, 1000 g/Ha, evaluated after 13 days, scale 0-5
Summary of the method: (§1)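 Seeds sown in standard soil, sprayed one day after sowing with active ingredient formulated in acetone/water (50:50) with 0.5% Tween 20. Glasshouse at 24/16 °C day/night, 14 h light, 65% humidity, watered twice daily; damage scored after 13 days on a 0–5 scale (5 = total damage).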

[2] = test system: Avena fatua (AVEFA); assay: Pre-emergence herbicidal activity; settings: pre-emergence application, 1000 g/Ha, evaluated after 13 days, scale 0-5
Summary of the method: as §1

[3] = test system: Echinochloa crus-galli (ECHCG); assay: Pre-emergence herbicidal activity; settings: pre-emergence application, 1000 g/Ha, evaluated after 13 days, scale 0-5
Summary of the method: as §1

[4] = test system: Lolium perenne (LOLPE); assay: Pre-emergence herbicidal activity; settings: pre-emergence application, 1000 g/Ha, evaluated after 13 days, scale 0-5
Summary of the method: as §1

[5] = test system: Oryza sativa (ORYSA); assay: Pre-emergence herbicidal activity; settings: pre-emergence application, 1000 g/Ha, evaluated after 13 days, scale 0-5
Summary of the method: as §1

[6] = test system: Triticum aestivium (TRZAW); assay: Pre-emergence herbicidal activity; settings: pre-emergence application, 1000 g/Ha, evaluated after 13 days, scale 0-5
Summary of the method: as §1

[7] = test system: Alopecurus myosuroides (ALOMY); assay: Post-emergence herbicidal activity; settings: post-emergence application, 1000 g/Ha, evaluated after 13 days, scale 0-5
Summary of the method: (§2)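 Plants grown from seed in standard soil for 8 days in a glasshouse (24/16 °C day/night, 14 h light, 65% humidity), then sprayed with compound formulated in acetone/water (50:50) containing 0.5% Tween 20. Damage was scored after 13 days on a 0–5 scale (5 = total damage, 0 = none).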

[8] = test system: Avena fatua (AVEFA); assay: Post-emergence herbicidal activity; settings: post-emergence application, 1000 g/Ha, evaluated after 13 days, scale 0-5
Summary of the method: as §2

[9] = test system: Echinochloa crus-galli (ECHCG); assay: Post-emergence herbicidal activity; settings: post-emergence application, 1000 g/Ha, evaluated after 13 days, scale 0-5
Summary of the method: as §2

[10] = test system: Lolium perenne (LOLPE); assay: Post-emergence herbicidal activity; settings: post-emergence application, 1000 g/Ha, evaluated after 13 days, scale 0-5
Summary of the method: as §2

[11] = test system: Oryza sativa (ORYSA); assay: Post-emergence herbicidal activity; settings: post-emergence application, 1000 g/Ha, evaluated after 13 days, scale 0-5
Summary of the method: as §2

[12] = test system: Triticum aestivium (TRZAW); assay: Post-emergence herbicidal activity; settings: post-emergence application, 1000 g/Ha, evaluated after 13 days, scale 0-5
Summary of the method: as §2

[13] = test system: Abutilon theophrasti (ABUTH); assay: Pre-emergence herbicidal activity; settings: pre-emergence application, 1000 g/Ha, evaluated after 13 days, scale 0-5
Summary of the method: as §1

[14] = test system: Amaranthus retroflexus (AMARE); assay: Pre-emergence herbicidal activity; settings: pre-emergence application, 1000 g/Ha, evaluated after 13 days, scale 0-5
Summary of the method: as §1

[15] = test system: Setaria faberi (SETFA); assay: Pre-emergence herbicidal activity; settings: pre-emergence application, 1000 g/Ha, evaluated after 13 days, scale 0-5
Summary of the method: as §1

[16] = test system: Zea Mays (ZEAMX); assay: Pre-emergence herbicidal activity; settings: pre-emergence application, 1000 g/Ha, evaluated after 13 days, scale 0-5
Summary of the method: as §1

[17] = test system: Abutilon theophrasti (ABUTH); assay: Post-emergence herbicidal activity; settings: post-emergence application, 1000 g/Ha, evaluated after 13 days, scale 0-5
Summary of the method: as §2

[18] = test system: Amaranthus retroflexus (AMARE); assay: Post-emergence herbicidal activity; settings: post-emergence application, 1000 g/Ha, evaluated after 13 days, scale 0-5
Summary of the method: as §2

[19] = test system: Setaria faberi (SETFA); assay: Post-emergence herbicidal activity; settings: post-emergence application, 1000 g/Ha, evaluated after 13 days, scale 0-5
Summary of the method: as §2

[20] = test system: Zea Mays (ZEAMX); assay: Post-emergence herbicidal activity; settings: post-emergence application, 1000 g/Ha, evaluated after 13 days, scale 0-5
Summary of the method: as §2

Row | SMILES | Control of weed species, ALOMY (damage score) [1] | Control of weed species, AVEFA (damage score) [2] | Control of weed species, ECHCG (damage score) ([3]; Table 5) | Control of weed species, LOLPE (damage score) ([4]; Table 5) | Control of weed species, ORYSA (damage score) [5] | Control of weed species, TRZAW (damage score) [6] | Control of weed species, ALOMY (damage score) [7] | Control of weed species, AVEFA (damage score) [8] | Control of weed species, ECHCG (damage score) ([9]; Table 7) | Control of weed species, LOLPE (damage score) ([10]; Table 7) | Control of weed species, ORYSA (damage score) [11] | Control of weed species, TRZAW (damage score) [12] | Control of weed species, ABUTH (damage score) [13] | Control of weed species, AMARE (damage score) [14] | Control of weed species, ECHCG (damage score) ([3]; Table 6) | Control of weed species, LOLPE (damage score) ([4]; Table 6) | Control of weed species, SETFA (damage score) [15] | Control of weed species, ZEAMX (damage score) [16] | Control of weed species, ABUTH (damage score) [17] | Control of weed species, AMARE (damage score) [18] | also measured
1 | CN(C(=O)OC(C)(C)C)c1sc(-c2cncc(F)c2)nc1Br [Compound A51] | 0 | 2 | 1 | 3 | 0 | 0 | 0 | 4 | 4 | 2 | 0 | 0 |  |  |  |  |  |  |  |  | 
2 | CN(C(=O)OC(C)(C)C)c1sc(-c2cncc(F)c2)nc1I [Compound A52] | 0 | 3 | 2 | 3 | 1 | 0 | 1 | 4 | 4 | 3 | 0 | 1 |  |  |  |  |  |  |  |  | 
3 | Cc1nc(-c2cc(F)c[n+]([O-])c2)sc1N(C)C(=O)OC(C)(C)C [Compound A62, tert-butyl N-[2-(5-fluoro-3-pyridyl N-oxide)-4-methyl-thiazol-5-yl]-N-methyl-carbamate] | 2 | 2 | 3 | 2 | 1 | 1 | 1 | 4 | 4 | 4 | 0 | 1 |  |  |  |  |  |  |  |  | 
4 | C#CCOC(=O)N(C)c1sc(-c2cccnc2)nc1C [Compound B1, prop-2-ynyl N-methyl-N-[4-methyl-2-(3-pyridyl)thiazol-5-yl]carbamate] |  |  |  |  |  |  |  |  |  |  |  |  | 2 | 2 | 2 | 3 | 5 | 5 | 1 | 1 | Control of weed species, ECHCG (damage score) ([9]; Table 8): 4; Control of weed species, LOLPE (damage score) ([10]; Table 8): 3; Control of weed species, SETFA (damage score) [19]: 5; Control of weed species, ZEAMX (damage score) [20]: 5
5 | C#CC(C)OC(=O)N(C)c1sc(-c2cccnc2)nc1C (stereo not drawn) [Compound B2, 1-methylprop-2-ynyl N-methyl-N-[4-methyl-2-(3-pyridyl)thiazol-5-yl]carbamate] |  |  |  |  |  |  |  |  |  |  |  |  | 3 | 3 | 1 | 3 | 5 | 5 | 2 | 2 | Control of weed species, ECHCG (damage score) ([9]; Table 8): 2; Control of weed species, LOLPE (damage score) ([10]; Table 8): 4; Control of weed species, SETFA (damage score) [19]: 5; Control of weed species, ZEAMX (damage score) [20]: 4
6 | C#CC(C)(C)OC(=O)N(C)c1sc(-c2cccnc2)nc1C [Compound B3, 1,1-dimethylprop-2-ynyl N-methyl-N-[4-methyl-2-(3-pyridyl)thiazol-5-yl]carbamate] |  |  |  |  |  |  |  |  |  |  |  |  | 4 | 3 | 3 | 3 | 4 | 5 | 1 | 2 | Control of weed species, ECHCG (damage score) ([9]; Table 8): 4; Control of weed species, LOLPE (damage score) ([10]; Table 8): 4; Control of weed species, SETFA (damage score) [19]: 5; Control of weed species, ZEAMX (damage score) [20]: 5
